{
  "source": "patent US12060588B2",
  "about": "“Methods of editing DNA methylation” (Whitehead Institute for Biomedical Research, priority 2016, dated 2024)",
  "system": "MyoD distal enhancer (DMR-5)",
  "test": "Bisulfite sequencing of the MyoD DMR-5 region in C3H10T1/2 cells",
  "assay_type": "cell-based, mouse",
  "details": "with target gRNAs, sorted infection-positive cells",
  "description": "FIGS. 4A-4H depict targeted demethylation of the MyoD distal enhancer by dCas9-Tet1 to facilitate conversion of fibroblasts to myoblasts. FIG. 4A provides a schematic representation of targeting the MyoD distal enhancer (DE) region in DMR-5 by dCas9-Tet1 (dC-T) with specific gRNAs. […] Cherry positive cells were FACS sorted for RT-qPCR analysis. Bars represent mean±SD of three experimental replicates. FIG. 4C bisulfite sequencing of cells in FIG. 4B. […] Shown is the mean percentage±SD of two biological replicates. […] FIG. 4F provides quantification of MyoD positive cell ratio 14-day post infection with lentiviruses expressing dC-T alone, dC-T with gRNAs targeting DMR-5, and dC-dT with the target gRNAs. […] FIG. 4H provides quantification of myotube density in MHC positive clusters with more than 2 or 5 nuclei at 14-days after infection. […] Data are quantified from 3-5 representative images for F-H. Bars represent mean±SD.\nSix muscle-specific DMRs have been described within the 50 kb upstream region of MyoD gene (Schultz et al., 2015), and DMR-5 overlaps with a known distal enhancer of MyoD (Brunk et al., 1996) as shown in FIG. 4A. […] The cells were cultured for 14 days and analyzed for MyoD and MHC (Myosin Heavy chain, a myotube specific marker) expression. […]",
  "data": [
    {"substance": "dCas9-Tet1: catalytically inactive Cas9 (dCas9) fused through NLS to the Tet1 catalytic domain, SEQ ID NO: 159; lentivirally expressed with gRNAs", "values": [
      {"measurement": "methylation in the DMR-5 region", "value": "substantial reduction of methylation"}
    ]}
  ]
}
